In the assay the test system is cerulein-induced acute pancreatitis. As to the kind of experiment: In vivo efficacy, cerulein-induced acute pancreatitis murine model. Set-up: species or system C57BL/6 male mice. From the text: Forty-one male C57BL/6 mice (8-week-old; approximately 24 g) were supplied by Envigo (Barcelona, Spain) (Ref 16512). During the experimental procedure, the animals were identified with a permanent marker (tail code numbers). Upon arrival, the animals were housed in groups of 8–9 animals/cage in polysulfone maintenance cages (480 × 265 × 210 mm, with a surface area of 940 cm^2) with wire tops and wood chip bedding. The animals were kept in an environmentally controlled room (ventilation, temperature 22 ± 2 °C, and humidity 35–65%) on a 12 h light/dark cycle. They underwent a period of 7 days of acclimatization between the date of arrival and the start of the procedure. […] The maintenance diet was supplied by Harlan Interfauna Ibérica S.L. (2018 Harlan Teklad Global Diets). Diet was provided to the animals ad libitum, but they were fasted overnight before the first cerulein injection, and food was replaced after the last cerulein injection. Tap water was supplied by CASSA (Servei d’Aigües de Sabadell) ad libitum. The animals were maintained in accordance with the European Directive for the Protection of Vertebrate Animals Used for Experimental and other Scientific Purposes (86/609/EU). Decree 214/1997 of 30th July. Ministry of agriculture, livestock and fishing of the Autonomous Government of Catalonia, Spain. Royal Decree 53/2013 of 1st February (Spain). All the experimental procedures were approved by the Ethical Committee on human and animal experimentation (CEEAH) of Universitat Autònoma de Barcelona (UAB) (procedure number: 4107) and by the Animal Experimentation Commission of the Generalitat de Catalunya (Catalan Government) (DAAM: 10146). The test item was dissolved in vehicle 10% 2-hydroxypropyl-β-cyclodextrin (CAS 128446-35-5) Sigma-Aldrich (Ref 332607). The vehicle was prepared the day before and kept at 4 °C. Pancreatitis induction: Mice (n = 41) were weighed, identified by a distinct number at the base of the tail, and fasted overnight. Cerulein (cerulein and cerulein + 22 groups) (50 μg/kg, prepared in 0.9% NaCl) or vehicle (0.9% NaCl) (control group) were intraperitoneally injected (V = 5 mL/kg) 12 consecutive times, at 1 h intervals (h = 0–11). Food was replaced after the last injection. A satellite experiment was designed where animals (n = 3) were distributed in control, cerulein, and cerulein + 22-treated groups. Pancreatitis was induced by seven injections of cerulein (or vehicle in the control group) at 1 h intervals (h = 0–6). Treatments: the test item was administered intraperitoneally in one injection to 22_03 (0.3 mg/kg) and 22_01 (0.1 mg/kg) groups at 14 h after the first cerulein injection. Animals from the control and cerulein groups received vehicle administration (10% 2-hydroxypropyl-β-cyclodextrin) (V = 10 mL/kg). Extra groups were treated 2 h after the first cerulein injection: 22 (0.3 mg/kg), control, and cerulein groups (10% 2-hydroxypropyl-β-cyclodextrin). Study end: 24 h after the first cerulein injection, animals were weighed and anesthetized with isoflurane. Blood was collected from the vena cava in an Eppendorf containing K2-EDTA and centrifuged at 10,000 rpm for 5 min for plasma collection. Plasma was stored at −80 °C until analysis. The mice were sacrificed by cervical dislocation and the pancreases were dissected and weighed. Pancreases from three animals were frozen in liquid N2 and stored at −80 °C until analysis. Pancreases from five mice were sectioned and one part was placed in 10% formalin and sent to Anapath (Granada, Spain) for histology analysis and the other was immediately placed in RNAse-free eppendorfs, frozen in N2, and stored at −80 °C for gene expression assays.
Pancreatic samples were treated with increasing grade alcohols and two xylol baths and embedded in paraffin. They were subsequently cut using a microtome and processed for staining. […]

Where [1] appears, read: Cerulein + 22 (0.3 mg/Kg), samples 1-5, score 0 (no changes) to 4 (very serious).

Consider `O=C(NC12CC3CC(Cl)(CC(C1)c1ccccc13)C2)N[C@H]1CC[C@H](Oc2ccc(C(=O)O)cc2)CC1` [Compound 22, 4-[((1r,4r)-4-(3-(9-Chloro-5,6,8,9,10,11-hexahydro-7H-5,9:7,11-dimethanobenzo[9]annulen-7-yl)ureido)cyclohexyl)oxy]benzoic Acid], for which the “body weight change at the end of the study” value is listed as “increased body weight” (22 0.1 mg/kg IP single dose, did not reach statistical significance) and “increased body weight” (22 0.3 mg/kg IP single dose, p < 0.01 vs Cerulein group). In addition, the “histologic score: Hemorrhage” value is on record as 0 (Cerulein + 22 (0.1 mg/Kg), samples 1-5, score 0 (no changes) to 4 (very serious)) and 0 under setting [1]. Moreover, the “histologic score: Mononuclear inflammatory cells” value under setting [1] is 0. Further, the “histologic score: Necrosis” value under setting [1] was found to be 0. For the same molecule, the “histologic analysis of pancreas, effect on cerulein-induced damage” value (both doses (0.1 and 0.3 mg/kg)) was “ameliorated cerulein-induced effects”; the “histologic analysis of pancreas, effect on cerulein-induced damage” value (higher dose (0.3 mg/kg)) was “more efficiently reversed the pancreatic damage, edema, and neutrophil infiltration”.

These data come from article PMC8634379, “From the Design to the In Vivo Evaluation of Benzohomoadamantane-Derived Soluble Epoxide Hydrolase Inhibitors for the Treatment of Acute Pancreatitis” (Journal of Medicinal Chemistry, 2021).
